Assay results taken from US20180141913A1 (EISAI R & D MANAGEMENT CO., LTD., priority 2016, published 2018).

Assays:
[1] = system: MCF7-WT cells (MCF7 ER-alpha wildtype); assay: In vitro proliferation (viability) assay, MCF7-WT cells; format: cell-based; settings: Homo sapiens, MCF7; CellTiter-Glo, day 6 vs day 0; average ± standard deviation; free base and/or salt forms; read-out: MCF7 WT GI50
Description: (§1) MCF7 BUS cells (Coser, et al., (2003) PNAS 100(24): 13994-13999) were maintained in Dulbecco's Modified Eagle Medium supplemented with 10% FBS, 4 mM L-glutamine and 1× non-essential amino acids. Lenti-X 293T cells (Clontech, Cat #632180) were routinely cultured in Dulbecco's Modified Eagle Medium supplemented with 10% FBS.
(§2) The QuikChange II XL Site-Directed Mutagenesis Kit (Agilent Technologies, Cat #200523) was used to generate Y537S, Y537C, Y537N and D538G mutations within the ERα exon 8. Wild-type ESR1 cDNA (GeneCopoeia Inc., Cat# GC-A0322, accession no. NM 000125) was used as a template with the following mutagenesis primers (where the underlined nucleotides represent site mutations); Y537S: F-AAGAACGTGGTGCCCCTCTCTGACCTGCTGCTGGAGATG (SEQ ID NO: 1), R-CATCTCCAGCAGCAGGTCAGAGAGGGGCACCACGTTCTT (SEQ ID NO: 2); Y537N: F-AAGAACGTGGTGCCCCTCAATGACCTGCTGCTGGAGATG (SEQ ID NO: 3), R-CATCTCCAGCAGCAGGTCATTGAGGGGCACCACGTTCTT (SEQ ID NO: 4); Y537C: F-AAGAACGTGGTGCCCCTCTGTGACCTGCTGCTGGAGATG (SEQ ID NO: 5), R-CATCTCCAGCAGCAGGTCACAGAGGGGCACCACGTTCTT (SEQ ID NO: 6); D538G: F-AACGTGGTGCCCCTCTATGGCCTGCTGCTGGAGATGCTG (SEQ ID NO: 7), R-CAGCATCTCCAGCAGCAGGCCATAGAGGGGCACCACGTT (SEQ ID NO: 8). WT and mutant ESR1 cDNAs were cloned into the designation lentiviral vector pLenti6.3/V5-Dest (Invitrogen, Cat #V533-06). To make lentivirus, DNAs (WT and mutant ESR1) were co-transfected with packaging plasmids into Lenti-X 293T cells using TransIT (Mirus, Cat #MIR 2700). 48 h post-transfection, virus containing media was filtered and added to MCF7 cells in the presence of 8 µg/ml polybrene overnight. Two days following infection, cells were placed under selection with 10 µg/ml blasticidin for 2 weeks for stable expression.
(§3) MCF7-WT and -Y537S cells were seeded at 1500 cells/well in black-walled 96-well plates (assay plates, Costar, Cat #3904). In parallel, cells were also seeded in a separate 96-well plate (8 wells/cell line, control plate) for which a CTG (CellTiter-Glo® Luminescent Viability Assay, Promega, Cat #G7572) was measured the following day (day 0 reading). The day 0 reading was used for the GI50 calculation at the termination of the experiment. The day following seeding, compounds were added to assay plates. Briefly, a 1:4 serial dilution was prepared in DMSO at 200× final concentration for a total of 10 concentrations (9 dilutions containing compound and one is DMSO only). Serially diluted compounds were pipetted into medium to prepare a compound-medium mix at 10× final concentration. 10 μl of compound-medium mix was added to MCF7-WT and -Y537S cells at 3 wells/concentration (triplicate for each concentration). On day 3, media/compound was removed and replaced with fresh media/compound as described above. On day 6, CTG was measured and compared to day 0 readings from control plate to assess GI50.

[2] = system: MCF7-Y537S cells (MCF7 ER-alpha Y537S mutant); assay: In vitro proliferation (viability) assay, MCF7-Y537S cells; format: cell-based; settings: Homo sapiens, MCF7; CellTiter-Glo, day 6 vs day 0; average ± standard deviation; free base and/or salt forms; read-out: MCF7 Y537S GI50
Description: as §1, §2, §3

SMILES	GI50 [1] [nM]	GI50 [2] [nM]
CC/C(=C(/c1ccc(OCCNC/C=C/C(=O)NC)cc1)c1ccc2[nH]nc(F)c2c1)c1ccc(F)cc1Cl [Compound 48, (E)-4-((2-(4-((E)-2-(2-chloro-4-fluorophenyl)-1-(3-fluoro-1H-indazol-5-yl)but-1-en-1-yl)phenoxy)ethyl)amino)-N-methylbut-2-enamide]	0.8 ± 0.14	8.25 ± 2.6
CC/C(=C(/c1ccc(OCCNC/C=C/C(=O)NC)nc1)c1ccc2[nH]nc(C)c2c1)c1ccccc1 [Compound 49, (E)-N-methyl-4-((2-((5-((Z)-1-(3-methyl-1H-indazol-5-yl)-2-phenylbut-1-en-1-yl)pyridin-2-yl)oxy)ethyl)amino)but-2-enamide]	173 ± 51.7	2420
CC/C(=C(/c1ccc(OCCNC/C=C/C(=O)NC)cc1)c1ccc2[nH]ncc2c1)c1ccccc1 [Compound 50, (E)-4-((2-(4-((E)-1-(1H-indazol-5-yl)-2-phenylbut-1-en-1-yl)phenoxy)ethyl)amino)-N-methylbut-2-enamide]	4 ± 1.16	98.5 ± 81.5
CC/C(=C(/c1ccc(OCCNCCCC(=O)NC)cc1)c1ccc2[nH]ncc2c1)c1ccccc1 [Compound 51, (E)-4-((2-(4-(1-(1H-indazol-5-yl)-2-phenylbut-1-en-1-yl)phenoxy)ethyl)amino)-N-methylbutanamide]	9.82 ± 1.92	190 ± 50.1
O=C(/C=C/CNCCOc1ccc(/C(=C(/CC(F)(F)F)c2ccccc2)c2ccc3[nH]nc(F)c3c2)cc1)N1CCCCC1 [Compound 52, (E)-1-(piperidin-1-yl)-4-((2-(4-((E)-4,4,4-trifluoro-1-(3-fluoro-1H-indazol-5-yl)-2-phenylbut-1-en-1-yl)phenoxy)ethyl)amino)but-2-en-1-one]	1.2	9.3
O=C1NCCC1CCNCCOc1ccc(/C(=C(/CC(F)(F)F)c2ccccc2)c2ccc3[nH]nc(F)c3c2)cn1 (stereo not shown) [Compound 53, (Z)-3-(2-((2-((5-(4,4,4-trifluoro-1-(3-fluoro-1H-indazol-5-yl)-2-phenylbut-1-en-1-yl)pyridin-2-yl)oxy)ethyl)amino)ethyl)pyrrolidin-2-one]	0.3	1.8
CNC(=O)/C=C/CNCCOc1ccc(/C(=C(/CC(F)(F)F)c2ccccc2)c2ccc3[nH]nc(F)c3c2)nn1 [Compound 54, (E)-N-methyl-4-((2-((6-((Z)-4,4,4-trifluoro-1-(3-fluoro-1H-indazol-5-yl)-2-phenylbut-1-en-1-yl)pyridazin-3-yl)oxy)ethyl)amino)but-2-enamide]	892 ± 528	7690
CNC(=O)/C=C/CNCCOc1ccc(/C(=C(/CC(F)(F)F)c2ccc(F)cc2Cl)c2ccc3[nH]ncc3c2)cn1 [Compound 58, (E)-4-((2-((5-((Z)-2-(2-chloro-4-fluorophenyl)-4,4,4-trifluoro-4,4,4-trifluoro-1-(1H-indazol-5-yl)but-1-en-1-yl)pyridin-2-yl)oxy)ethyl)amino)-N-methylbut-2-enamide]	0.33 ± 0.12	3.97 ± 2.25
CC/C(=C(/c1ccc(OCCNCCCC(=O)NC)nc1)c1ccc2[nH]ncc2c1)c1ccccc1 [Compound 62, (Z)-4-((2-((5-(1-(1H-indazol-5-yl)-2-phenylbut-1-en-1-yl)pyridin-2-yl)oxy)ethyl)amino)-N-methylbutanamide]	3.31 ± 0.43	14.5 ± 4.32

Second part, the molecule after the results:

GI50 [1] [nM]	GI50 [2] [nM]	SMILES
17.9 ± 8.66	117 ± 11.6	CNC(=O)/C=C/CNCCOc1ccc(/C(=C(\c2ccccc2)C2CC2)c2ccc3[nH]nc(F)c3c2)cc1 [Compound 63, (E)-4-((2-(4-((E)-2-cyclopropyl-1-(3-fluoro-1H-indazol-5-yl)-2-phenylvinyl)phenoxy)ethyl)amino)-N-methylbut-2-enamide]
153 ± 27.4	673 ± 167	CNC(=O)/C=C/CNCCOc1ccc(/C(=C(/CCO)c2ccccc2)c2ccc3[nH]nc(F)c3c2)cc1 [Compound 64, (E)-4-((2-(4-((E)-1-(3-fluoro-1H-indazol-5-yl)-4-hydroxy-2-phenylbut-1-en-1-yl)phenoxy)ethyl)amino)-N-methylbut-2-enamide]
58.3 ± 48.1	310 ± 139	CNC(=O)/C=C/CNCCOc1ccc(/C(=C(/CCOC)c2ccccc2)c2ccc3[nH]nc(F)c3c2)cc1 [Compound 65, (E)-4-((2-(4-((E)-1-(3-fluoro-1H-indazol-5-yl)-4-methoxy-2-phenylbut-1-en-1-yl)phenoxy)ethyl)amino)-N-methylbut-2-enamide]
437 ± 55.2	> 10000	CNC(=O)/C=C/CNCCOc1ccc(/C(=C(/CCCl)c2ccccc2)c2ccc3[nH]nc(F)c3c2)cc1 [Compound 66, (E)-4-((2-(4-((E)-4-chloro-1-(3-fluoro-1H-indazol-5-yl)-2-phenylbut-1-en-1-yl)phenoxy)ethyl)amino)-N-methylbut-2-enamide]
5.38 ± 0.66	87.7 ± 55	CCC/C(=C(/c1ccc(OCCNC/C=C/C(=O)NC)cc1)c1ccc2[nH]nc(F)c2c1)c1ccccc1 [Compound 67, (E)-4-((2-(4-((E)-1-(3-fluoro-1H-indazol-5-yl)-2-phenylpent-1-en-1-yl)phenoxy)ethyl)amino)-N-methylbut-2-enamide]
22 ± 2.66	101 ± 53	CNC(=O)/C=C/CNCCOc1ccc(/C(=C(\c2ccccc2)C(C)C)c2ccc3[nH]nc(F)c3c2)cc1 [Compound 68, (E)-4-((2-(4-((E)-1-(3-fluoro-1H-indazol-5-yl)-3-methyl-2-phenylbut-1-en-1-yl)phenoxy)ethyl)amino)-N-methylbut-2-enamide]
8080	9400	CNC(=O)/C=C/CNCCOc1ccc(/C(=C/CC(F)(F)F)c2ccc3[nH]nc(F)c3c2)nn1 [Compound 69, (E)-N-methyl-4-((2-((6-((E)-4,4,4-trifluoro-1-(3-fluoro-1H-indazol-5-yl)but-1-en-1-yl)pyridazin-3-yl)oxy)ethyl)amino)but-2-enamide]
0.95 ± 0.25	6.18 ± 2.51	O=C1CCCN1CCOc1ccc(/C(=C(/CC(F)(F)F)c2ccccc2)c2ccc3[nH]nc(F)c3c2)cc1 [Compound 70, (E)-1-(2-(4-(4,4,4-trifluoro-1-(3-fluoro-1H-indazol-5-yl)-2-phenylbut-1-en-1-yl)phenoxy)ethyl)pyrrolidin-2-one]
0.62	5.31	CNC(=O)CCCNCCOc1ccc(/C(=C(/CC(F)(F)F)c2ccccc2)c2ccc3[nH]nc(F)c3c2)cn1 [Compound 71, (Z)—N-methyl-4-((2-((5-(4,4,4-trifluoro-1-(3-fluoro-1H-indazol-5-yl)-2-phenylbut-1-en-1-yl)pyridin-2-yl)oxy)ethyl)amino)butanamide]
1.86 ± 0.87	22.2 ± 14.3	O=C(O)/C=C/CNCCOc1ccc(/C(=C(/CC(F)(F)F)c2ccccc2)c2ccc3[nH]nc(F)c3c2)cn1 [Compound 72, (E)-4-((2-((5-((Z)-4,4,4-trifluoro-1-(3-fluoro-1H-indazol-5-yl)-2-phenylbut-1-en-1-yl)pyridin-2-yl)oxy)ethyl)amino)but-2-enoic acid]
7.34 ± 0.58	155 ± 60.1	CC/C(=C(/c1ccc(OCCNC/C=C/C(=O)O)cc1)c1ccc2[nH]ncc2c1)c1ccccc1 [Compound 73, (E)-4-((2-(4-((E)-1-(1H-indazol-5-yl)-2-phenylbut-1-en-1-yl)phenoxy)ethyl)amino)but-2-enoic acid]
